Test [1] concerns HCV GT1b replicon cells. The test is described as follows: HCV replicon assay, GT1b replicon cells (luciferase reporter / NEO gene qPCR). Type of test: cell-based. To be noted: EC50 range against HCV 1b genotype, 72 hours incubation. On the procedure:
(§1) An HCV Replicon assay was utilized in the present disclosure, and was prepared, developed and validated as described in Science, 1999, 285 (5424), 110-3 and J. Virol., 2003, 77 (5), 3007-19.
(§2) HCV GT1a, GT1b and GT2a replicon cells were used to test the currently described compound series as well as wild-type cells HCV 1b and resistant cells Y93H, L31F, P32L and 1302V. GT1a, GT1b and GT2a are HCV Replicon System which is transfected HCV 1a, 1b, 2a genotype respectively. The system containing G418 resistance gene NEO and Luciferase Reporter Gene can be used to determine the level of HCV replication, and evaluate the effects of the compounds inhibiting HCV replication, by using a real-time quantitative polymerase chain reaction (qPCR) method to detect NEO, and chemiluminescence method to test Luciferase Reporter Gene.
(§3) 1. Testing EC50 of the Compounds by Luciferase Assay
(§4) The GT1a cells and GT1b cells were seeded into 96-well plates (8,000 cells in 125 μl/well) respectively; each compound was diluted to desired concentration using 5-fold serial dilutions protocol, 10 dose in duplicate, and added to wells with POD™ 810 Plate Assembler. The final concentration of DMSO was 0.5%; the plates were incubated in a CO2 incubator for 72 hours; after that, 40 μl of Luciferase assay substrate (Promega Bright-Glo) was added to each well, and detected by a chemiluminescence detection system (Topcount Microplate Scintillation and Luminescence Counter) 5 minutes later; data analysis.
(§5) 2. Testing EC50 of the Compounds by Detecting Antibiotic G418 Resistance Gene NEO Gene
(§6) The GT1a cells and GT1b cells were seeded into 96-well plates (8,000 cells in 125 μl/well) respectively; each compound was diluted to desired concentration using 5-fold serial dilutions protocol, 10 dose in duplicate, and added to wells with POD™ 810 Plate Assembler, the final concentration of DMSO was 0.5%; the cells were incubated in a CO2 incubator for 72 hours; quantitative PCR. • Sample preparation: the supernatant was removed, 100 μl of FCW buffer solution was added to each well, washed carefully and discarded the solution; 50 μl of lysate FCP was added to each well, the cells was lysed as PCR template and PCR template was diluted with DEPC water as sample template. • Quantitative PCR: preparation of reaction mixture according to PCR system; the reaction mixture was dispensed into a 384-well PCR reaction plate (specially for quantitative); and a standard template which was diluted in proportion was distributed into the plate; and the sample template was distributed into the plate; then the 384-well plate was sealed with closure plate membrane; the […] PCR machine was operated by procedures; data analysis.
(§7) 3. Data processing: EC50 values of compounds were analyzed by GRAPHPAD PRISM® software.

Test [2] relates to HCV GT1a replicon cells. The test is described as follows: HCV replicon assay, GT1a replicon cells (luciferase reporter / NEO gene qPCR). Type of test: cell-based. To be noted: EC50 range against HCV 1a genotype, 72 hours incubation. On the procedure: as §1, §2, §3, §4, §5, §6, §7

Turning to `COC(=O)N[C@H](C(=O)N1CCC[C@H]1c1ncc(-c2ccc(-c3ccc(-c4ccc5nc([C@@H]6CCCN6C(=O)[C@@H](NC(=O)OC)C(C)C)[nH]c5c4)c4c3C(=O)C3(CCCC3)C4)cc2)[nH]1)C(C)C` [Example 36], the EC50 in test [1] (Hepatitis C virus, GT1B, 72 h) was 0.001 to 0.1 nM; in test [2] (Hepatitis C virus, GT1A) it was 0.001 to 0.1 nM.
Regarding `COC(=O)N[C@H](C(=O)N1CCC[C@H]1c1ncc(-c2ccc(-c3ccc(-c4cnc([C@@H]5CCCN5C(=O)[C@@H](NC(=O)OC)C(C)C)[nH]4)c4c3CC3(CCCCC3)C4)cc2)[nH]1)C(C)C` [Example 50], the EC50 was 1 to 10 nM in test [1] (Hepatitis C virus, GT1B, 72 h) and 0.001 to 0.1 nM in test [2] (Hepatitis C virus, GT1A).
Take `COC(=O)N[C@H](C(=O)N1CCC[C@H]1c1ncc(C#Cc2ccc(C#Cc3cnc([C@@H]4CCCN4C(=O)[C@@H](NC(=O)OC)C(C)C)[nH]3)c3c2CC2(CCCC2)C3)[nH]1)C(C)C` [Example 8]: the EC50 was in the range of 1 to 10 nM in test [1] (Hepatitis C virus, GT1B, 72 h) and 0.001 to 0.1 nM in test [2] (Hepatitis C virus, GT1A).
The matching figures for `COC(=O)N[C@H](C(=O)N1CCCC[C@H]1c1ncc(-c2ccc(-c3ccc(-c4cnc([C@@H]5CCCCN5C(=O)[C@@H](NC(=O)OC)C(C)C)[nH]4)c4c3CC3(CCCC3)C4)cc2)[nH]1)C(C)C` [Example 45]: over 10 nM and 0.001 to 0.1 nM.
For `COC(=O)N[C@H](C(=O)N1CCC[C@H]1c1ncc(-c2ccc(-c3ccc(-c4cnc([C@@H]5CCCN5C(=O)[C@@H](NC(=O)OC)C(C)C)[nH]4)c4c3CC3(CCCC3)C4)s2)[nH]1)C(C)C` [Example 17] the same measures were over 10 nM and 0.101 to 1 nM.
Take `COC(=O)N[C@H](C(=O)N1C[C@@H](C)C[C@H]1c1ncc(-c2ccc(-c3ccc(-c4cnc([C@@H]5C[C@H](C)CN5C(=O)[C@@H](NC(=O)OC)C(C)C)[nH]4)c4c3CC3(CCCCC3)C4)cc2)[nH]1)C(C)C` [Example 20]: the EC50 in test [1] lay in the range of 0.101 to 1 nM; in test [2] it was 0.001 to 0.1 nM.

These data come from patent US9303061B2, “Spiro compounds as Hepatitis C virus inhibitors” (Sunshine Luke Pharma Co., Ltd., priority 2011, dated 2016).
